Test results as given in patent US20240317745A1, “SIGMA-1 RECEPTOR ANTAGONISTS AND THEIR APPLICATIONS” (Humanwell Pharmaceutical US, Inc., priority 2023, published 2024).
Structures can show the parent of a compound that is named as a salt.

Key:
Sigma-1 receptor = Sigma-1 receptor (Cavia porcellus (Guinea pig), UniProt Q60492); assay: Sigma-1 receptor binding affinity test ([3H]-(+)-pentazocine displacement, guinea pig cerebral cortex membranes); details: [3H]-(+)-pentazocine 10 nM, 25° C., 180 minutes; read-out: Sigma1R Ki
Sequence of Sigma-1 receptor (Q60492 whole entry): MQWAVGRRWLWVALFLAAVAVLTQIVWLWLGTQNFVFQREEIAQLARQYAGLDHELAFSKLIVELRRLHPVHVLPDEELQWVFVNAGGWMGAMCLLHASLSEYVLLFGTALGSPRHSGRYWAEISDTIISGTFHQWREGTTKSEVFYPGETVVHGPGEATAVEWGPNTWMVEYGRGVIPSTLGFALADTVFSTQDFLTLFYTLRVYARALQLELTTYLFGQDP
Method: Guinea pigs (provided by Beijing Vital River Laboratory Animal Technology Co., Ltd.) were decapitated, and the operations were carried out on ice. The cerebral cortex was quickly harvested and pooled into a centrifuge tube. A suitable amount of buffer (0.05M Tris-HCl with 0.32M sucrose) was added to the tube, and the tissue was homogenized using a homogenizer (IKA, Ultra Turrax T25 Digital) at setting 4 for 3˜4 seconds, repeated four times. After homogenization, solution B was added to adjust the volume to 10 mL/g. The weight of the centrifuge tubes was balanced, and then they were centrifuged at 1000 g for 10 minutes using a high-speed refrigerated centrifuge. The supernatant was collected and adjusted to 2 mL/g with solution B, followed by centrifugation at 1000 g and 4° C. for 10 minutes. The supernatant was then centrifuged at 18000 rpm and 4° C. for 25 minutes. The pellet was resuspended in solution B to a final volume of 3 mL/g and incubated in a water bath at 25° C. for 15 minutes. After incubation, the suspension was centrifuged at 18000 rpm and 4° C. for 45 minutes. The pellet was stored at −80° C. for future use.
An appropriate amount of homogenization buffer was added to the prepared membrane, and was dispersed into a suspension using a homogenizer, protein concentration was measured to be 4 mg/ml. 100 micrograms of protein were added to each well of a 96-well plate, with a volume of 90 μl. […] [3H]-(+)-pentazocine (Perkin-Elmer, Cat #NET1056250UC) was added to each well (final concentration of 10 nM). The 96-well plate was incubated in a constant temperature water bath (25° C., 180 minutes). […] After washing, the samples were dried in a 37° C. oven.

[1] = test system: motor balance ability of rats; assay: Rat rotarod test (motor balance ability); format: in vivo; details: 15 rpm
Method: Placing rats on a continuously rotating rod causes them to move immediately in the opposite direction of the rod's motion. […] During the formal experiment, the time the rats stay on the rotarod is used as an indicator to measure their motor balance ability. This experiment aims to explore the impact of compound 37 at doses ranging from 10 to 300 mg/kg on the motor balance ability of rats in the rotarod test.
After administration of the test substance to the rats, they are placed on the rotarod fatigue tester, and the average time spent on the rod after three tests is recorded and analyzed.
Calculate the Maximum Possible Effect on Motor Balance Ability %: Maximum Possible Effect on Motor Balance Ability %=(1−test group/vehicle)×100%
Note: The motor balance ability of the vehicle group is considered as 0%, and the Maximum Possible Effect on Motor Balance Ability % for each group is calculated based on this standard.

[2] = test system: Spinal Nerve Ligation (SNL) model; assay: Spinal Nerve Ligation (SNL) model, mechanical pain threshold by Von Frey filaments; format: in vivo; details: rat, oral administration (i.g.), 100 mg/kg, mechanical pain threshold ipsilateral hind paw
From the text: It is a type of chronic pain characterized by features such as spontaneous pain, hyperalgesia, abnormal pain, and sensory disturbances. Following nerve damage, neuropathic pain can persist, and its characteristics include hypersensitive responses to stimuli […], the presence of abnormal sensations (allodynia), and painful responses to non-harmful stimuli […]. The Spinal Nerve Ligation (SNL) model involves the tight ligation of the L5 and L6 spinal nerves using sutures.
In this experiment, pregabalin at a dose of 100 mg/kg was used as a positive control to compare the analgesic effect of the test compound. After administration, the mechanical pain threshold in the ipsilateral hind paw of the rat was tested using Von Frey filaments. The change in mechanical pain threshold before and after administration was used to determine whether the test compound at 100 mg/kg has a neuropathic pain-relieving effect in the SNL model.

Compound `Fc1ccc(-c2cc(CN3CCOCC3)on2)cc1F` [Compound 19] has a Ki (Sigma-1 receptor) of 0.172 µM.

In the case of `Fc1ccc(-c2cc(CN3CC[Se]CC3)on2)cc1F` [Compound 20], the Ki (Sigma-1 receptor) is reported as 0.0489 µM.

With `OC1CCN(Cc2cc(-c3ccc(F)c(F)c3)no2)CC1` [Compound 37] the “change in the time spent on the rotarod compared to the vehicle” value ([1]; oral 15 minutes prior, 10-300 mg/kg) was “no significant change”, the “Maximum Possible Effect on Motor Balance Ability” value (“Maximum Possible Effect” below) ([1]; oral 15 minutes prior, first of four doses in 10-300 mg/kg) was −6% and the “Maximum Possible Effect” value ([1]; oral 15 minutes prior, fourth of four doses in 10-300 mg/kg) was −6%. The “Maximum Possible Effect” value ([1]; oral 15 minutes prior, second of four doses in 10-300 mg/kg) was 11% and the “Maximum Possible Effect” value ([1]; oral 15 minutes prior, third of four doses in 10-300 mg/kg) was −6%.

Compound `O[C@H]1CCN(Cc2cc(-c3ccc(F)c(F)c3)no2)C1` [Compound 38] has a Ki (Sigma-1 receptor) of 0.379 µM.

Work on `OC[C@H]1CCCN1Cc1cc(-c2ccc(F)c(F)c2)no1` [Compound 40] yielded a Ki (Sigma-1 receptor) of 0.19 µM.

For `OC[C@@H]1CCCN1Cc1cc(-c2ccc(F)c(F)c2)no1` [Compound 41], the Ki (Sigma-1 receptor) was 0.034 µM.

`O[C@@H]1CCN(Cc2cc(-c3ccc(Cl)c(Cl)c3)no2)C1` [Compound 43] showed a Ki (Sigma-1 receptor) of 0.00797 µM.

`OC[C@H]1CCCN1Cc1cc(-c2ccc(Cl)c(Cl)c2)no1` [Compound 44] was tested, and the Ki (Sigma-1 receptor) was 0.019 µM.

Work on `OCCC1CCN(Cc2cc(-c3ccc(Cl)c(Cl)c3)no2)CC1` [Compound 47] yielded a Ki (Sigma-1 receptor) of 0.00074 µM.

With `CC1COCC(C)N1CCOCc1cc(-c2ccc(Cl)c(Cl)c2)no1` (centres unmarked) [Compound 77] the Ki (Sigma-1 receptor) was 0.0149 µM.

`O=C1CCN(Cc2cc(-c3ccc(F)c(F)c3)no2)CC1` [Compound 88] was tested, and the Ki (Sigma-1 receptor) was 0.959 µM.

In the case of `CC(C)C[C@H](CN)CC(=O)O` [Pregabalin, pregabalin], the “analgesic activity in the SNL model” value [2] is reported as “some analgesic activity”.

With `Cc1cccc([C@H](C)c2cnc[nH]2)c1C` [dexmedetomidine hydrochloride injection, dexmedetomidine hydrochloride, reference compound] the “Maximum Possible Effect” value ([1]; subcutaneous injection 30 μg/kg, 15 minutes prior, vs vehicle) was 62%.
